Test results reported in patent publication EP4725941A1, “ARYLAMIDE DERIVATIVE HAVING ANTITUMOR ACTIVITY” (priority 2020, dated 2021).
Like-named read-outs stand apart in the source and are kept apart here.

How the values were obtained:
Calu-6 = experiment: Cell proliferation-inhibiting activity (ATP in viable cells, CellTiter-Glo), Calu-6; type: cell-based, human; conditions: read-out: Calu-6 IC50
MEK1 = target: T1, MEK1 (Homo sapiens, UniProt Q02750); experiment: MEK1-inhibiting activity, fluorescent polarization method (CRAF/MEK1/ERK2 cascade, IMAP); type: biochemical; conditions: Table 3; read-out: MEK1 IC50
T1 construct: purchased Thermo Fisher Scientific Inc. (MEK1, CRAF); Carna Biosciences, Inc. (ERK2)
T1 sequence (Q02750 whole entry): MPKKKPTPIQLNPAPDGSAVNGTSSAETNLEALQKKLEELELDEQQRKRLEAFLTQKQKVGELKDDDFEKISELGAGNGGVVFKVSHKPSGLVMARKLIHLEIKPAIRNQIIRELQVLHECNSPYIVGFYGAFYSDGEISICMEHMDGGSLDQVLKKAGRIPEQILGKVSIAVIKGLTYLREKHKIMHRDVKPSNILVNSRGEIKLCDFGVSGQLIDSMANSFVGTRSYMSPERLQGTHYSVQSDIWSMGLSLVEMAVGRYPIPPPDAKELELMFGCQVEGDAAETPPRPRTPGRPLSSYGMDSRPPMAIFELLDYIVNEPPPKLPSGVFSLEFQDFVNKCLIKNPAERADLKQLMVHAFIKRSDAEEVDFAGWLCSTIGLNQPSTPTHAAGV
Protocol: The MEK1-inhibiting activity of the compounds listed in Table 3 below were evaluated by the fluorescent polarization method as described below.

[1] = Human liver microsome stability; type: in vitro ADME; conditions: human liver microsomes, pH 7.4
NCI-H2122 = experiment: Cell proliferation-inhibiting activity (ATP in viable cells, CellTiter-Glo), NCI-H2122; type: cell-based, human; conditions: read-out: NCI-H2122 IC50
BRAF = target: T2, BRAF (Homo sapiens, UniProt P15056); experiment: BRAF-inhibiting activity, time-resolved fluorescence-fluorescence resonance energy transfer assay; type: biochemical
T2 construct: purchased Eurofins Genomics KK; (BRAF); Thermo Fisher Scientific Inc. (MEK1)
T2 sequence (P15056 417-766 limits assumed): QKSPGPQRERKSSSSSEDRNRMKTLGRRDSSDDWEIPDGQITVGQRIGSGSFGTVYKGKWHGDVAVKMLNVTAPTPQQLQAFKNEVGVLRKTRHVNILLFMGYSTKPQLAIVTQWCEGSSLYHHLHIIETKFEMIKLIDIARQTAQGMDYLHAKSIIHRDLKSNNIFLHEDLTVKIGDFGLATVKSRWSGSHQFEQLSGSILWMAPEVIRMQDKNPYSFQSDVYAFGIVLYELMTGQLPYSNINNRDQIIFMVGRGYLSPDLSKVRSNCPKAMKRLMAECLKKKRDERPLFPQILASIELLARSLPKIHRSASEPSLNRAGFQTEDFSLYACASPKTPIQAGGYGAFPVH
Protocol: The BRAF-inhibiting activity of the compounds listed in Table 3 below was evaluated by the time-resolved fluorescence-fluorescence resonance energy transfer assay as described below.

A549 = experiment: Cell proliferation-inhibiting activity (ATP in viable cells, CellTiter-Glo), A549; type: cell-based, human; conditions: A549, 96 h, read-out: A549 IC50
[2] = Calu-6, 96 h, human lung cancer cells, 4 days
[3] = NCI-H2122, 96 h, human lung cancer cells, 4 days
[4] = human lung cancer cells, 4 days

| Structure (SMILES) | IC50 (Calu-6; Homo sapiens, Calu-6, 96 h) [µM] | IC50 (MEK1) [µM] | microsomal CLint at 0.99 µM [1] [µL/min/mg] | IC50 (NCI-H2122; Homo sapiens, NCI-H2122, 96 h) [µM] | IC50 (BRAF; Table 3; read-out: BRAF IC50) [µM] | IC50 (Calu-6; [2]) [µM] | IC50 (NCI-H2122; [3]) [µM] | IC50 (BRAF; read-out: BRAF IC50; Table 3) [µM] | IC50 (A549; [4]) [µM] | IC50 (Calu-6; [4]) [µM] | IC50 (NCI-H2122; [4]) [µM] | IC50 (A549; Homo sapiens) [µM] |
| --- | --- | --- | --- | --- | --- | --- | --- | --- | --- | --- | --- | --- |
| CC1(NS(=O)(=O)Nc2nccc(Cc3cc(C(N)=O)c(Nc4ccc(C5CC5)cc4F)c(F)c3F)c2F)CCC1 [Compound A-46, 2-(4-Cyclopropyl-2-fluoroanilino)-3,4-difluoro-5-[[3-fluoro-2-[(1-methylcyclobutyl)sulfamoylamino]pyridin-4-yl]methyl]benzamide] | 0.367 | 0.811 | 23 | 0.031 | 0.03 | – | – | – | – | – | – | – |
| CS(=O)(=O)Nc1nccc(Cc2cc(C(=O)NC3CC3)c(Nc3ccc(I)cc3F)c(F)c2F)c1F [Compound B-14, N-Cyclopropyl-3,4-difluoro-2-(2-fluoro-4-iodoanilino)-5-[[3-fluoro-2-(methanesulfonamide)pyridin-4-yl]methyl]benzamide] | – | 0.104 | 4 | – | – | 0.074 | 0.011 | 0.013 | – | – | – | – |
| CONC(=O)c1cc(Cc2ccnc(NS(C)(=O)=O)c2F)c(F)c(F)c1Nc1ccc(I)cc1F [Compound B-15, 3,4-Difluoro-2-(2-fluoro-4-iodoanilino)-5-[[3-fluoro-2-(methanesulfonamide)pyridin-4-yl]methyl]-N-methoxybenzamide] | – | 0.008 | 13 | – | – | 0.06 | 0.006 | 0.004 | – | – | – | – |
| CCS(=O)(=O)Nc1nccc(Cc2cc(C(=O)NOC)c(Nc3ccc(I)cc3F)c(F)c2F)c1F [Compound B-16, 5-[[2-(ethylsulfonylamino)-3-fluoropyridin-4-yl]methyl]-3,4-difl uoro-2-(2-fluoro-4-iodoanilino)-N-methoxybenzamide] | – | 0.004 | 10 | – | – | 0.009 | 0.001 | 0.012 | – | – | – | – |
| CCS(=O)(=O)Nc1cccc(Cc2cc(C(=O)NC3CC3)c(Nc3ccc(I)cc3F)c(F)c2F)c1F [Compound D-8, N-Cyclopropyl-5-[[3-(ethylsulfonylamino)-2-fluorophenyl]methyl]-3,4-difluoro-2-(2-fluoro-4-iodoanilino)benzamide] | – | 0.161 | 20 | – | – | – | 0.008 | 0.021 | 0.066 | – | – | – |
| CC1(NS(=O)(=O)Nc2cccc(Cc3cc(C(N)=O)c(Nc4ccc(I)cc4F)c(F)c3F)c2F)CCC1 [Compound D-9, 3,4-Difluoro-2-(2-fluoro-4-iodoanilino)-5-[[2-fluoro-3-[(1-methylcyclobutyl)sulfamoylamino]phenyl]methyl]benzamide] | – | 0.252 | 53 | – | – | 0.028 | 0.003 | 0.024 | – | – | – | – |
| NC(=O)c1cc(Cc2cccc(NS(N)(=O)=O)c2F)c(F)c(F)c1Nc1ccc(I)cc1F [Compound E-8, 3,4-Difluoro-2-(2-fluoro-4-iodoanilino)-5-[[2-fluoro-3-(sulfamoylamino)phenyl]methyl]benzamide] | – | 0.137 | 1 | – | – | – | 0.002 | 0.002 | 0.003 | – | – | – |
| NC(=O)c1cc(Cc2cccc(NS(=O)(=O)CCCF)c2F)c(F)c(F)c1Nc1ccc(I)cc1F [Compound E-15, 3,4-Difluoro-5-[[2-fluoro-3-(3-fluoropropylsulfonylamino)phenyl]methyl]-2-(2-fluoro-4-iodoanilino)benzamide] | – | 0.287 | 21 | – | – | – | 0.007 | 0.004 | 0.02 | – | – | – |
| CCCS(=O)(=O)Nc1cccc(Cc2cc(C(N)=O)c(Nc3ccc(I)cc3F)c(F)c2F)c1F [Compound E-18, 3,4-Difluoro-2-(2-fluoro-4-iodoanilino)-5-[[2-fluoro-3-(propylsulfonylamino)phenyl]methyl]benzamide] | – | 0.366 | 29 | – | – | – | 0.008 | 0.005 | 0.007 | – | – | – |
| NC(=O)c1cc(Cc2cccc(NS(=O)(=O)C3CCC3)c2F)c(F)c(F)c1Nc1ccc(I)cc1F [Compound E-20, 5-[[3-(Cyclobutylsulfonylamino)-2-fluorophenyl]methyl]-3,4-difluoro-2-(2-fluoro-4-iodoanilino)benzamide] | – | 0.467 | 18 | – | – | – | 0.011 | 0.013 | 0.037 | – | – | – |
| NC(=O)c1cc(Cc2cccc(NS(=O)(=O)C3COC3)c2F)c(F)c(F)c1Nc1ccc(I)cc1F [Compound E-21] | – | 0.189 | 13 | – | – | – | 0.014 | 0.024 | 0.03 | – | – | – |
| CS(=O)(=O)Nc1cccc(Cc2cc(C(=O)NC3CC3)c(Nc3ccc(I)cc3F)c(F)c2F)c1F [Compound E-25, N-Cyclopropyl-3,4-difluoro-2-(2-fluoro-4-iodoanilino)-5-[[2-fluoro-3-(methanesulfonamide)phenyl]methyl]benzamide] | – | 0.284 | – | – | 0.011 | – | – | – | – | 0.028 | 0.007 | – |
| CNS(=O)(=O)Nc1cccc(Cc2cc(C(N)=O)c(Nc3ccc(I)cc3F)c(F)c2F)c1 [Compound F-1, 3,4-Difluoro-2-(2-fluoro-4-iodoanilino)-5-[[3-(methylsulfamoylamino)phenyl]methyl]benzamide] | – | 0.246 | 10 | – | – | – | 0.003 | 0.005 | 0.007 | – | – | – |
| COCCS(=O)(=O)Nc1cccc(Cc2cc(C(N)=O)c(Nc3ccc(I)cc3F)c(F)c2F)c1 [Compound F-3, 3,4-Difluoro-2-(2-fluoro-4-iodoanilino)-5-[[3-(2-methoxyethylsulfonylamino)phenyl]methyl]benzamide] | – | 0.38 | 28 | – | – | – | 0.024 | 0.005 | 0.008 | – | – | – |
| CNS(=O)(=O)Nc1nccc(Cc2cc(C(=O)NOC)c(Nc3ccc(Cl)cc3F)c(F)c2F)c1F [Compound G-4, 2-(4-Chloro-2-fluoroanilino)-3,4-difluoro-5-[[3-fluoro-2-(methylsulfamoylamino)pyridin-4-yl]methyl]-N-methoxybenzamide] | – | 0.053 | 26 | – | – | – | 0.012 | 0.004 | 0.028 | – | – | – |
| CNS(=O)(=O)Nc1nccc(Cc2cc(C(N)=O)c(Nc3ccc4sccc4c3)c(F)c2F)c1F [Compound H-2, 2-(1-Benzothiophen-5-ylamino)-3,4-difluoro-5-[[3-fluoro-2-(methylsulfamoylamino)pyridin-4-yl]methyl]benzamide] | – | 0.049 | 77 | – | – | – | 0.016 | 0.002 | 0.031 | – | – | – |
| CNS(=O)(=O)Nc1cccc(Cc2cc(C(N)=O)c(Nc3ccc(I)cc3F)c(F)c2F)n1 [Compound H-5, 3,4-Difluoro-2-(2-fluoro-4-iodoanilino)-5-[[6-(methylsulfamoylamino)pyridin-2-yl]methyl]benzamide] | – | 0.115 | 26 | – | – | – | 0.004 | 0.002 | 0.006 | – | – | – |
| CCNS(=O)(=O)Nc1nccc(Cc2cc(C(N)=O)c(Nc3ccc(I)cc3F)cc2F)c1F [Compound I-2, 5-[[2-(Ethylsulfamoylamino)-3-fluoropyridin-4-yl]methyl]-4-fluoro-2-(2-fluoro-4-iodoanilino)benzamide] | – | 0.047 | 12 | – | – | – | 0.011 | 0.003 | 0.025 | – | – | – |
| CCS(=O)(=O)Nc1cccc(Cc2cc(C(=O)NC3CC3)c(Nc3ccc(I)cc3F)n(C)c2=O)c1F [Compound K-8, N-Cyclopropyl-5-[[3-(ethylsulfonylamino)-2-fluorophenyl]methyl]-2-(2-fluoro-4-iodoanilino)-1-methyl-6-oxopyridine-3-carboxamide] | – | 0.209 | 103 | – | – | – | 0.029 | 0.014 | 0.068 | – | – | – |
| CNS(=O)(=O)Nc1nccc(Cn2cc(C(N)=O)c(Nc3ccc(I)cc3F)c(F)c2=O)c1F [Compound N-1, 5-Fluoro-4-(2-fluoro-4-iodoanilino)-1-[[3-fluoro-2-(methylsulfamoylamino)pyridin-4-yl]methyl]-6-oxopyridine-3-carboxamide] | – | 0.001 | 8 | – | – | – | 0.028 | 0.002 | 0.02 | – | – | – |
| CNS(=O)(=O)Nc1nccc(Cn2cc(C(N)=O)c(Nc3ccc(SC)cc3F)c(F)c2=O)c1F [Compound N-3, 5-Fluoro-1-[[3-fluoro-2-(methylsulfamoylamino)pyridin-4-yl]methyl]-4-(2-fluoro-4-methylsulfanylanilino)-6-oxopyridine-3-carboxamide] | – | 0.004 | 19 | 0.311 | 0.005 | – | – | – | – | – | – | 0.475 |
| CNS(=O)(=O)Nc1nccc(Cn2cc(C(N)=O)c(Nc3ccc(I)cc3F)c(C)c2=O)c1F [Compound P-1, 4-(2-Fluoro-4-iodoanilino)-1-[[3-fluoro-2-(methylsulfamoylamino)pyridin-4-yl]methyl]-5-methyl-6-oxopyridine-3-carboxamide] | – | 0.002 | 15 | – | – | 0.022 | 0.006 | – | – | – | – | – |
